Source: US20250213561A1, “SELECTIVE HYPOTHALAMUS PERMEABLE HDAC6 INHIBITORS FOR TREATMENT OF LEPTIN-RESISTANT OBESITY” (The Children’s Medical Center Corporation, priority 2022, published 2025)

Legend:
Type in all cases: in vivo
DIO mice [1] = test: Single dose food intake in 24 h fasted DIO mice; settings: ACY775 10 mg/kg, ACY738 50 mg/kg i.p.
Experimental: Food intake was analyzed hourly until 3:00 am. […] DEXA scans were performed in two different cohorts.

p-STAT3^Tyr705 = test: Leptin-stimulated hypothalamic STAT3 Tyr705 phosphorylation in DIO mice; settings: 45 minutes after leptin 1 mg/kg i.p.
Experimental: DIO mice were pretreated with ACY775 (10 mg/kg/day, i.p.) or vehicle for 3 days, which was followed by a last injection of ACY775 (or vehicle) in the morning of fourth day. 6 hours later mice were injected with saline or leptin (1 mg/kg, i.p.) and hypothalamus were extracted after 45 minutes following the leptin injection. Representative immunoblots for STAT3^Tyr705 phosphorylation and total STAT3 from the hypothalamus. Quantification of the ratio of p-STAT3^Tyr705 to total-STAT3 signal in the immunoblots. The results were reproduced in three independent experiments. The results were analyzed hourly.
DIO mice were pretreated with ACY775 (10 mg/kg/day, i.p.) or vehicle for 3 days, which was followed by a last injection of ACY775 (or vehicle) in the morning of fourth day. 6 hours later mice were injected with saline or leptin (1 mg/kg, i.p.) and the hypothalamus were extracted after 45 minutes following the leptin injection.
6 hours later mice were injected with saline or leptin (1 mg/kg, i.p.) and hypothalamus were extracted after 45 minutes following the leptin injection. Immunoblots for STAT3^Tyr705 phosphorylation and total STAT3 from the hypothalamus were made to quantify the ratio of p-STAT3^Tyr705 to total-STAT3 signal in the immunoblots. The results were reproduced in two independent experiments.
DIO mice were pretreated with ricolinostat (50 mg/kg/day, i.p.) or vehicle 3 days, which was followed by a last injection of ricolinostat (or vehicle) in the morning of fourth day. 6 hours later mice were injected with saline or leptin (1 mg/kg, i.p.) and the hypothalamus were extracted after 45 minutes following the leptin injection. Immunoblots were performed for STAT3^Tyr705 phosphorylation and total STAT3 from the hypothalamus. The ratio of p-STAT3^Tyr705 to total STAT3 signal in the immunoblots was quantified.

DIO mice [2] = test: Acute leptin co-treatment in DIO mice (body weight, food intake 15 h); settings: for body weight, leptin after pre-treatment with inhibitor: 3 days pre-treatment
Experimental: DIO mice were pretreated with ACY775 (10 mg/kg/day, i.p.) or vehicle for 3 days, which was followed by co-treatment with ACY775 (or vehicle) and leptin (1 mg/kg, i.p.) (or saline) (n=9 for each group), % change in body weight 15 h after leptin treatment, food intake (g) during the 15 h period after leptin treatment. The results in were reproduced in two independent experiments.
Diet induced obese (DIO) mice were pretreated with ACY775 (10 mg/kg/day, i.p.) or vehicle for 3 days, which was followed by co-treatment with ACY775 (or vehicle) and leptin (1 mg/kg, i.p.) (or saline) (n=9 for each group). Mice were evaluated for % change in body weight 15 h after leptin treatment, and food intake (g) during the 15 h period after leptin treatment.
DIO mice were pretreated with ricolinostat (25 mg/kg/day, i.p.) or vehicle for 3 days, which was followed by co-treatment with ricolinostat (or vehicle) and leptin (1 mg/kg, i.p.) (or saline) (n=32 for each group). Change in body weight 15 h after leptin treatment, and food intake (g) during the 15 h period after leptin treatment were determined. The results were reproduced in two independent experiments.

HDAC6 in AgRP neurons = test: DIO mice with HDAC6 depleted in AgRP neurons (HDAC6^Agrp-Δ)
Experimental: Design, validation, and stereotaxic injection of AAV viral vector carrying the guide RNAs targeting the mouse HDAC6 genomic locus. Three designed sgRNAs were concatenated and constructed into an AAV vector carrying a cre-enabled mCherry fluorescent marker.
Following the bilateral injection of AAV-sgHDAC6 into the arcuate nucleus of Agrp-ires-cre::LSL-Cas9-GFP (Agrp-Cre^+/−::Cas9^+/−) or control LSL-Cas9-GFP (Cas9^+/−) mice, immunostaining to detect the expression of mCherry and GFP was performed. AAV-sg-HDAC6 injected Agrp-Cre^+/−::Cas9^+/− (HDAC6^Agrp-Δ) and Cas9^+/−(HDAC6^WT) DIO mice (n=7 for each group) were fasted for 24 hours, and injected with ACY775 (10 mg/kg. i.p). Hourly total dark cycle food intake (g) (n=7 for each group) of these mice after ACY775 injection was measured. Body weight of AAV-sg-HDAC6 injected HDAC6^Agrp-Δ (n=11) and HDAC6^WT (n=6) mice were measured during 3 weeks of ACY775 (10 mg/kg/day, i.p.) treatment. Daily average food intake of HDAC6^Agrp-Δ (n=11) and HDAC6^WT (n=6) mice was measured during 3 weeks of ACY775 (10 mg/kg/day, i.p.) treatment. 24-hour food intake average of HDAC6^Agrp-Δ and HDAC6^WT mice during the 3 weeks of ACY775 treatment was assessed. Serum leptin level (ng/ml) of HDAC6^Agrp-Δ and HDAC6^WT mice after 2 weeks of ACY775 treatment (n=13 for HDAC6^WT and n=18 for HDAC6^Agrp-Δ) was measured. Lean mass (g); fat mass; and fat percentage (%) of HDAC6^Agrp-Δ and HDAC6^WT DIO mice after 3 weeks of ACY775 treatment was measured by DEXA scan. The HDAC6 inhibitor responsive neurons in the dorsomedial hypothalamus (DMH) were assessed. Immunostaining and quantification of c-Fos expression was performed in the DMH of DIO mice following one-time ACY775 treatment (10 mg/kg, i.p.).

[3] = leptin 1 mg/kg i.p., 15 h period

SMILES	food intake after a single dose (DIO mice [1])	leptin-stimulated hypothalamic p-STAT3^Tyr705 (p-STAT3^Tyr705)	body weight, leptin after pre-treatment with inhibitor (DIO mice [2]; leptin 1 mg/kg i.p., 15 h)	food intake, leptin together with inhibitor (DIO mice [2]; [3])	body weight, agent alone (DIO mice [2]; 15 h, ACY775 10 mg/kg, ricolinostat 25 mg/kg, leptin 1 mg/kg i.p.)	food intake, agent alone (DIO mice [2]; 15 h period)	suppression of food intake after a single dose (HDAC6 in AgRP neurons; HDAC6^Agrp-Δ DIO mice, 10 mg/kg i.p.)	anti-obesity effects on chronic treatment (HDAC6 in AgRP neurons; HDAC6^Agrp-Δ versus HDAC6^WT DIO mice)
O=C(NO)c1cnc(NC2(c3ccccc3)CC2)nc1 [ACY738]	significantly reduced/blocked the food intake	substantially increased	significantly augmented the acute leptin-induced reduction in body weight and food intake	significantly augmented the acute leptin-induced reduction in body weight and food intake				
O=C(NO)c1cnc(NC2(c3cccc(F)c3)CCCCC2)nc1 [ACY775, 2-[[1-(3-fluorophenyl)cyclohexyl]amino]-N-hydroxy-5-pyrimidinecarboxamide]	significantly reduced/blocked the food intake	increased significantly	further reduction in bodyweight	further augmented the negative effect of leptin on food intake	significantly decreased the bodyweight	reduced the food intake	almost complete resistance to ACY755-induced suppression of food intake	Significantly attenuated effects
